Measurements published in patent US20250177392A1, “BROAD SPECTRUM INHIBITORS OF CYTOMEGALOVIRUS” (MICROBIOTIX, INC., priority 2022, published 2025).

Experiments:
NHDF cells [1] = assay: Cell number by Hoechst stain (cell proliferation); assay type: cell-based, human; details: up to 50 μM, 6 day period; cycloheximide 50 μg/mL
Experimental: (§1) Fibroblasts were treated with increasing concentrations of MBX-4992 and MBXC-4336 for up to 6 days and cell number was measured periodically using Hoechst stain to quantify cell proliferation (A and B). Cyclohexamide (CHX) and DMSO (−) were used as positive and negative controls for cytotoxicity respectively. Cell cytostaticity (C and D) was assessed using ATP-based CellTiter Glo luciferase assay following extended incubation with increasing concentrations of MBX-4992 and MBXC-4336 for 1 or 6 days. Relative light units (RLU) were measured following cell lysis and normalized to DMSO treated cells for each time point.
(§2) The CellTiter Glo Luminescent Assay (Promega Inc, Madison, WI) was performed according to the manufacturer's instruction. NHDF cells (10^4) were plated in a 96-well plate overnight and treated with MBX-4992 or MXC-4336 ([…]) in triplicate for up to 6 days. Cyclohexamide (50 μg/mL) was used as a control. CellTiter Glo substrate was added in a 1:1 ratio with media and CellTiter-Glo reagent followed by the analysis of luciferase activity (relative light units, RLU) using a BioTek Synergy H1 microplate reader. In parallel, an identical plate was labelled with Hoescht reagent (25 μg/mL) to quantify the cell number using a Celigo Cytometer.
(§3) Next, the cytostaticity and cytotoxicity of treatment with MBX-4992 and MBXC-4336 was analyzed. […]

NHDF cells [2] = assay: CellTiter Glo ATP luciferase assay; assay type: cell-based, human; details: 0-50 μM, 1 or 6 days; cycloheximide 50 μg/mL
Experimental: as §1, §2, §3

AD169^R (IE1 expression) = assay: Western blot (immunoblot) of IE1 expression in AD169^R-infected cells; assay type: cell-based, Human cytomegalovirus; details: NHDF cells, 24 hpi; MBX-4992 1-10 μM, ganciclovir 5 μM, convallotoxin 0.01 μM
Experimental: The molecular weight markers and respective proteins are indicated.
FIGS. 12A and B are Western Blot assays showing that MBXC-4336 limits expression of IE1 in fibroblasts and epithelial cells. Total cell lysates from AD169^R-infected (MOI 0.2) NHDF (A) and ARPE-19 (B) cells pre-treated with DMSO, MBX-4336 (0, 1, 5, 10, or 20 μM), or heparin (50 μg/mL) collected at 48 hpi were subjected to Western blot analysis using a rabbit anti-IE-1 antibody (lanes 1-7) and an anti-GAPDH antibody (lanes 8-14) as a loading control. The molecular weight markers and respective proteins are indicated.
Total cell lysates from virus infected NHDF cells treated with compounds were created through SDS-lysis (10^4/100 uL of 1% SDS) of at least three rounds of heating at 95° C. for 3 min and vigorous agitation. The total cell lysates were resolved using an SDS-polyacrylamide gel (12.5%), transferred to a PVDF membrane using a semi-dry apparatus. The membrane was then incubated with 1% BSA/PBS for 1 hr at room temperature followed by incubation with anti-IE1 and anti-GAPDH. Finally, the respective secondary antibody conjugated with HRP was incubated with membrane followed by detection using ECL reagents (Millipore).
Next, inhibition of the expression of IE1 in AD169^R-infected cells treated with MBX-4992 was examined by immunoblot analysis (FIG. 4E). […] Collectively, these findings further indicate that MBX-4992 effectively prevents the expression of the immediate-early genes during a CMV infection.

HCMV AD169 = assay: Herpes virus panel neutralization, HCMV AD169; assay type: cell-based, Human cytomegalovirus; details: Human betaherpesvirus 5; HCMV AD169; read-out: IC50
Experimental: (§4) To determine the specificity of MBX-4992, additional neutralization experiments were conducted using a panel of herpes viruses performed in the presence of MBX-4992. […] Collectively, the antiviral activity of MBX-4992 is equivalent to that of GCV indicating specific inhibition of CMV replication.

HCMV GDGr K17 (GCV^R) = assay: Herpes virus panel neutralization, GCV-resistant HCMV; assay type: cell-based, Human cytomegalovirus; details: Human betaherpesvirus 5
Experimental: as §4

MCMV Smith = assay: Herpes virus panel neutralization, MCMV; assay type: cell-based, Murine cytomegalovirus; details: Murid betaherpesvirus 1; MCMV Smith; read-out: IC50
Experimental: as §4

AD169^R CMV virus = assay: Plaque reduction (dissemination) assay, prophylactic treatment; assay type: cell-based, Human cytomegalovirus; details: 2.5 μM, 10 dpi
Experimental: FIG. 8A-H are fluorescence images (A & B) and graphs showing that NAPA compounds MBX-4992 and MBXC-4336 work in both prophylactic and therapeutic settings to inhibit HCMV infection. ARPE-19 cells (A to D) and NHDF cells (E and F) treated with increasing concentrations (0, 1, 5, 20, and 50 μM) of MBX-4992, MBXC-4336, or ganciclovir (2.5 μM) were infected with AD169^R (MOI 0.025) and analyzed for viral plaques of >5,000 μm^2 (C and E) and >10,000 μm^2 (D and F) based on GFP fluorescence. The representative images of plaques from AD169^R-infected ARPE-19 cells treated MBX-4992, MBXC-4336, ganciclovir are shown (A and B). MBX-4992, MBXC-4336 (G and H), and ganciclovir treatment at 48 hpi of AD169^R-infected ARPE-19 cells (MOI 0.025) were analyzed for virus plaques >5,000 μm^2 and >10,000 μm^2 at 10 dpi. The normalized plaque number was designated to be 100 based on plaques from DMSO treated cells. Statistical tests were performed using ordinary one-way ANOVA with multiple comparisons to DMSO treated cells as a control and a Dunnett's post-test; *, p<0.05; **, p<0.01; ***, p<0.001; ****, p<0.0001.
For the prophylactic treatment analysis, the plaque assay was performed on ARPE-19 and NHDF cells (4×10^4) in a 24-well plate. The cells were pretreated for 1 hour with either MBX-4992 or MBXC-4336 (1-50 μM), DMSO, or ganciclovir (2.5 μM) and followed by virus infection with AD169^R. Following a 2-hour incubation at 37° C., the inoculum was removed and cells were overlaid with 1% low melt sea agarose. Upon solidification of the agarose, MBX-4992, MBXC-4336, DMSO, or ganciclovir in media was added at the indicated concentration. The drugs were replaced every 3 days. The cells were examined using Brightfield and GFP fluorescence to quantify the number and size of virus plaques using a Celigo Cytometer at 10 dpi.
To address whether NAPA compounds can limit virus dissemination in epithelial cells, we analyzed the inhibitory properties of MBX-4992 and MBXC-4336 using a plaque reduction assay by designating a cluster of virus infected cells as a virus plaque (Parsons et al., Antivir. Res., 193:105124 (2021)) The results are shown in FIG. 8A-H.
To evaluate the prophylactic function of the NAPA compounds, ARPE-19 cells and NHDF cells treated with DMSO, MBX-4992, MBXC-4336 (0-50 μM), or ganciclovir (2.5 μM) were infected with AD169^R CMV virus and analyzed for virus plaques at 10 dpi based on GFP fluorescence (FIG. 8A-F). A cluster of virus infected cells was designated a viral plaque based on an average cluster area of 5,000 μm^2 or 10,000 μm^2 (FIG. 8A-B) using a Celigo cytometer.

TB40/E = assay: Plaque assay, MBX-4992 and ganciclovir alone and in combination; assay type: cell-based, Human cytomegalovirus; details: ARPE-19 and NHDF cells, 10 dpi; MBX-4992 1-20 μM, ganciclovir 2.5 μM
Experimental: At 10 day post-infection, representative whole well images of plaques >10,000 μm^2 (A and B) were quantified based on GFP fluorescence intensity and calculated relative to DMSO controls (C and D). Statistical tests were performed using ordinary one-way ANOVA with multiple comparisons to DMSO treated cells as a control and a Dunnett's post-test. *, p<0.05; **, p<0.01; ***, p<0.001; ****, p<0.0001.
At 10 days post-infection, representative whole well images of plaques >10,000 μm^2 (A and B) were quantified based on GFP fluorescence intensity and calculated relative to DMSO controls (C and D).

AD169^R [3] = assay: Virus pre-incubation / washout study; assay type: cell-based, Human cytomegalovirus; details: virus pre-incubated, compound washed out; MBX-4992 10 μM, heparin 50 μg/ml
Experimental: (B) Based on the schematic, AD169^R (MOI 0.2) was pre-incubated with DMSO, MBX-4992, or heparin for one hour before being added to NHDF cells. Virus/compound mix was washed out after 30 minutes as indicated and either unchanged or replaced with media containing DMSO, MBX-4992, or heparin. Virus infection was quantified at 24 hpi GFP fluorescence. Percent infection was normalized to untreated cells.
NHDF cells (10^4) plated overnight in a 96-well plate were incubated at 4° C. for 30 minutes with AD169^R CMV virus pretreated with MBX-4992 (10 μM), Heparin (50 μg/mL) or DMSO for 1 hour at room temperature (in triplicate). For 2/3rd of the samples, media was aspirated and half of the wells received DMSO media, regardless of which drug the virus was exposed to, or MBX-4992 (10 μM), or Heparin (50 μg/mL) overnight. At 18 hpi, the cells were fixed with 4% paraformaldehyde, stained with a rabbit anti-IE1 antibody followed by an anti-rabbit Alexa 647, and analyzed using the Celigo cytometer. The DMSO condition that was not aspirated post binding was set as 100% infection.
To further characterize the mechanism of action, pre-incubation/washout studies were performed using AD169^R and MBX-4992. […] At 18 hpi, cells were immunostained with an anti-IE1 antibody as a readout for infection and quantified using a Celigo cytometer. […]

AD169^R [4] = assay: Cells pre-incubation / washout study; assay type: cell-based, Human cytomegalovirus; details: cells pre-treated; drugs not removed or added back to washed-out cells
Experimental: (C) NHDF cells were pre-incubated with DMSO, MBX-4992 or heparin prior to virus addition. After addition of AD169^R (MOI 0.2) for 30 min, media was either unchanged or replaced with media containing DMSO, MBX-4992, or heparin. Virus infection was quantified at 24 hpi by GFP fluorescence. Percent infection was normalized to untreated cells. Statistical tests were performed using ordinary one-way ANOVA with multiple comparisons to DMSO treated cells as a control and a Dunnett's post-test: *, p<0.05; ****, p<0.0001.
NHDF cells (10^4) plated overnight in a 96-well plate were pretreated with MBX-4992 (10 μM), heparin (50 μg/mL) or DMSO for 1 hour at 37° C. The plate was then placed at 4° C. for 5 minutes followed by the addition of AD169^R CMV virus for 30 minutes. 2/3rd of the samples were aspirated post binding. Half of those samples received DMSO media, regardless of the drug the cells were previously exposed to. The remaining wells received either MBX-4992 (10 μM) or Heparin (50 μg/mL) overnight. At 18 hpi, the cells were fixed with 4% paraformaldehyde, stained with a rabbit anti-IE1 antibody followed by an anti-rabbit Alexa 647, and analyzed using the Celigo cytometer. The DMSO condition that was not aspirated post binding was set as 100% infection.
We next examined whether pre-treating cells with MBX-4992 can limit virus infection. Cells were pre-treated with MBX-4992 or heparin for […] followed by the addition of AD169^R for 30 min at 4° C. The cells were either washed out or unchanged as indicated and replaced with media containing DMSO, MBX-4992, or heparin followed by incubation at 37° C. At 18 hpi, virus infection was evaluated using a Celigo cytometer.

C[C@@H]1C[C@@H]([C@H](O)CC2CC(=O)NC(=O)C2)C(=O)[C@@H](C)C1 [cycloheximide, reference compound]
cell number (NHDF cells [1]): dramatic decrease in cell number and luciferase activity
luciferase signal (ATP levels) (NHDF cells [2]): dramatic decrease in cell number and luciferase activity

Nc1nc(O)c2ncn(COC(CO)CO)c2n1 [ganciclovir, reference compound]
IE1 expression by immunoblot (AD169^R (IE1 expression)): did not impact infection
IC50 (HCMV AD169): 900 nM
IC50 (HCMV GDGr K17 (GCV^R)): 10400 nM
IC50 (MCMV Smith): 200 nM
reduction of plaque number (AD169^R CMV virus): ~50%
viral plaques >10,000 μm^2, single drug (TB40/E): decreased

heparin [reference compound]
decrease of infection after washing out (AD169^R [3]): positive control for inhibition
virus infection, drug not removed or added back (AD169^R [4]): significantly inhibited virus infection
